Laboratory results from US11180495B2 (Abbisko Therapeutics Co., Ltd., priority 2017, dated 2021).

What was measured:
CSF-1R = biological target: T1, CSF-1R (Homo sapiens, UniProt P07333); experiment: CSF-1R in vitro biochemical kinase study (ADP-Glo assay); details: 3.95 nM CSF-1R, 500 μM ATP, 30° C. 60 min, read-out: Enzymatic experiment CSF-1R IC50
T1 construct: 3.95 nM of CSF-1R, 500 μM of ATP and 0.2 mg/mL of polypeptide
Description: In the present invention, the inhibitory activity of compounds against the CSF-1R activity was determined by using CSF-1R ADP-Glo assay. The compound-mediated inhibition effect was achieved by inhibiting the production of ADP from consumption of ATP, and the activities of compounds were evaluated by using the ADP-Glo kit (Promega, cat. No. V9101). The specific experimental process was as follows: • 1. The kinase reaction performed in the present invention was carried out in a 384-well plate (Perkinelmer, cat. No. 6007290), and 3.95 nM of CSF-1R, 500 μM of ATP and 0.2 mg/mL of polypeptide (Poly (Glu4, Try1), Sigma, cat. No. P0275) were respectively weighed and added to each well: • 2. following reagents were then added to each well to reach the final reaction system: 40 mM Tris, pH 7.5, 20 mM MgCl2, 0.01% Triton X-100, 0.1 mg/mL BSA, 2.5 mM DTT and 0.1% DMSO; • 3. the reaction was conducted at 30° C. for 60 min; • 4. then an equal volume of stop solution (ADP-Glo) was added to the kinase reaction system; • 5. the mixed solution was incubated at 25° C. for 60 min, and the kinase reaction was then terminated; • 6. a two-fold volume of detection reagent was then added to each well; • 7. the mixed solution was incubated at 25° C. for 30 min; • 8. the compound IC50 value was measured by using a plate reader (Tecan, M1000) and a four-parameter curve was generated in Graphpad Prism. B. KIT/PDGFRA In Vitro Biochemical Kinase Study • 1. Preparation of 1-fold kinase buffer and stop solution • 1.1 1-fold kinase buffer: 50 mM HEPES, pH 7.5, 0.0015% Brij-35. • 1.2 stop solution: 100 mM HEPES, pH 7.5, 0.015% Brij-35, 0.2% Coating Reagent #3 50 mM EDTA • 2. Preparation of compound solution • 2.1 Dilution of compound solution • 1) The final concentration of the compound solution was 40 μM. and the concentration of the prepared stock solution was 50 times of the final concentration, i.e., 2 mM. • 2) 80 μL of 100% DMSO was added to the second well of the 96-well plate, then 20 μL of 10 mM compound solution was added, and thereby 2 mM compound solution was prepared, 60 μL of 100% DMSO was added to other wells, 20 μL of compound was taken from the second well, added to the third well and diluted by 4 times. This serial 4-time dilution was conducted in sequence for the total of 10 concentrations. • 2.2 5-fold compound solution transferred to a reaction plate • 1) 10 μL of solution was taken from each well of the above 96-well plate and added to another 96-well plate, and 90 μL of kinase buffer was added. • 2) 5 μL of solution was taken from the above 96-well plate and added to a 384-well reaction plate. • 2.3 Kinase reaction • 1) KIT/PDGFRA kinase was added to the 1-fold kinase buffer solution to obtain a 2.5-fold kinase solution. • 2) FAM-labeled polypeptide and ATP were added to the 1-fold kinase buffer solution to obtain a 2.5-fold substrate solution. • 3) 10 μL of 2.5-fold kinase solution was added to the 384-well reaction plate, which already contained 5 μL of 5-fold compound in 10% DMSO. And the mixed solution was incubated at room temperature for 10 min. • 4) 10 μL of 2.5-fold substrate solution was added to the 384-well reaction plate. • 5) Kinase reaction and termination: the mixed solution was incubated at 28° C. for a certain period of time, and 25 μL of stop solution was added to stop the reaction. • 2.4 Data reading of Caliper EZ Reader II • 2.5 Calculation of percent inhibition and IC50 • 1) Percent conversion data were copied from the Caliper EZ Reader. • 2) Percent conversion was converted into percent inhibition data, wherein, max referred to percent conversion of the DMSO control, and min referred to percent conversion of the negative control without kinase activity. Percent inhibition=(max−conversion)/(max−min)*100. • 3) The IC50 value was fitted with XLFit excel add-in version 5.4.0.8: Fitting formula: Y=Bottom+(Top−Bottom)/(1+(IC50/X)^HillSlope).

[1] = system: NCI-H1703 human non-small cell lung squamous carcinoma cells; experiment: PDGFRA-related cell proliferation experiment (Cell Titer Glo); assay type: cell-based; details: 72 h, 3 days, CTG, read-out: Cytological experiment PDGFRA IC50
Description: Functional effects of compounds on the proliferation of several cell lines were evaluated by Cell Titer Glo (CTG) studies in the present invention, and effects of the compounds on the proliferation of different cells were evaluated to determine the selectivity degree of the compounds. In the study, M-07e human cytomegalic leukemia cells (cat. No. CBP60791) from Nanjing Kebai Biotechnology Co., Ltd. were cultured in an incubator under conditions of RPMI1640 (Gibco, cat. No. 11875-119), 20% fetal bovine serum (Gibco, 10099-141), human 10 ng/mL GM-CSF granulocyte macrophage colony-stimulating factors (R&D, cat. No. 215-GM-010), 37° C. and 5% CO2; and Kasumi-1 human acute myeloblastic leukemia cells (cat. No. CBP60524) were cultured in an incubator under conditions of RPMI1640 (Gibco, cat. No. 11875-119), 20% fetal bovine serum (Gibco, 10099-141), 37° C. and 5% CO2; NCI-H1703 human non-small cell lung squamous carcinoma cells (cat. No. CBP60115) were cultured in an incubator under conditions of RPMI1640 (Gibco, cat. No. 11875-119), 10% fetal bovine serum (Gibco, 10099-141), 37° C. and 5% CO2; and MV-4-11 human acute monocytic leukemia cells (cat. No. CBP60522) were cultured in an incubator under conditions of IMDM (Invitrogen, cat. No. 12440053), 20% fetal bovine serum (Gibco, 10099-141), 37° C. and 5% CO2. Since ATP is an index for viable cell metabolism, CTG (Promega, #G7573) reagent is a homogeneous detection method for detecting the number of viable cells in the culture by quantifying ATP. Therefore, compound-mediated inhibition for cell proliferation/survival was evaluated by quantifying ATP content in cells, and the specific experimental process was as follows.
II) NCI-H1703 Human Non-Small Cell Lung Squamous Carcinoma Cell • 1.

PDGFRA = PDGFRA (Homo sapiens, UniProt P16234); experiment: PDGFRA in vitro biochemical kinase study (Caliper EZ Reader); details: FAM-labeled polypeptide, Caliper EZ Reader II; read-out: Enzymatic experiment PDGFRA IC50
Description: (§1) In the present invention, the inhibitory activity of compounds against the CSF-1R activity was determined by using CSF-1R ADP-Glo assay. The compound-mediated inhibition effect was achieved by inhibiting the production of ADP from consumption of ATP, and the activities of compounds were evaluated by using the ADP-Glo kit (Promega, cat. No. V9101). The specific experimental process was as follows: • 1. The kinase reaction performed in the present invention was carried out in a 384-well plate (Perkinelmer, cat. No. 6007290), and 3.95 nM of CSF-1R, 500 μM of ATP and 0.2 mg/mL of polypeptide (Poly (Glu4, Try1), Sigma, cat. No. P0275) were respectively weighed and added to each well: • 2. following reagents were then added to each well to reach the final reaction system: 40 mM Tris, pH 7.5, 20 mM MgCl2, 0.01% Triton X-100, 0.1 mg/mL BSA, 2.5 mM DTT and 0.1% DMSO; • 3. the reaction was conducted at 30° C. for 60 min; • 4. then an equal volume of stop solution (ADP-Glo) was added to the kinase reaction system; • 5. the mixed solution was incubated at 25° C. for 60 min, and the kinase reaction was then terminated; • 6. a two-fold volume of detection reagent was then added to each well; • 7. the mixed solution was incubated at 25° C. for 30 min; • 8. the compound IC50 value was measured by using a plate reader (Tecan, M1000) and a four-parameter curve was generated in Graphpad Prism. B. KIT/PDGFRA In Vitro Biochemical Kinase Study • 1. Preparation of 1-fold kinase buffer and stop solution • 1.1 1-fold kinase buffer: 50 mM HEPES, pH 7.5, 0.0015% Brij-35. • 1.2 stop solution: 100 mM HEPES, pH 7.5, 0.015% Brij-35, 0.2% Coating Reagent #3 50 mM EDTA • 2. Preparation of compound solution • 2.1 Dilution of compound solution • 1) The final concentration of the compound solution was 40 μM. and the concentration of the prepared stock solution was 50 times of the final concentration, i.e., 2 mM. • 2) 80 μL of 100% DMSO was added to the second well of the 96-well plate, then 20 μL of 10 mM compound solution was added, and thereby 2 mM compound solution was prepared, 60 μL of 100% DMSO was added to other wells, 20 μL of compound was taken from the second well, added to the third well and diluted by 4 times. […]

KIT = KIT (Homo sapiens, UniProt P10721); experiment: KIT in vitro biochemical kinase study (Caliper EZ Reader); details: FAM-labeled polypeptide, Caliper EZ Reader II; read-out: Enzymatic experiment KIT IC50
Description: as §1

T1 sequence (P07333 20-972): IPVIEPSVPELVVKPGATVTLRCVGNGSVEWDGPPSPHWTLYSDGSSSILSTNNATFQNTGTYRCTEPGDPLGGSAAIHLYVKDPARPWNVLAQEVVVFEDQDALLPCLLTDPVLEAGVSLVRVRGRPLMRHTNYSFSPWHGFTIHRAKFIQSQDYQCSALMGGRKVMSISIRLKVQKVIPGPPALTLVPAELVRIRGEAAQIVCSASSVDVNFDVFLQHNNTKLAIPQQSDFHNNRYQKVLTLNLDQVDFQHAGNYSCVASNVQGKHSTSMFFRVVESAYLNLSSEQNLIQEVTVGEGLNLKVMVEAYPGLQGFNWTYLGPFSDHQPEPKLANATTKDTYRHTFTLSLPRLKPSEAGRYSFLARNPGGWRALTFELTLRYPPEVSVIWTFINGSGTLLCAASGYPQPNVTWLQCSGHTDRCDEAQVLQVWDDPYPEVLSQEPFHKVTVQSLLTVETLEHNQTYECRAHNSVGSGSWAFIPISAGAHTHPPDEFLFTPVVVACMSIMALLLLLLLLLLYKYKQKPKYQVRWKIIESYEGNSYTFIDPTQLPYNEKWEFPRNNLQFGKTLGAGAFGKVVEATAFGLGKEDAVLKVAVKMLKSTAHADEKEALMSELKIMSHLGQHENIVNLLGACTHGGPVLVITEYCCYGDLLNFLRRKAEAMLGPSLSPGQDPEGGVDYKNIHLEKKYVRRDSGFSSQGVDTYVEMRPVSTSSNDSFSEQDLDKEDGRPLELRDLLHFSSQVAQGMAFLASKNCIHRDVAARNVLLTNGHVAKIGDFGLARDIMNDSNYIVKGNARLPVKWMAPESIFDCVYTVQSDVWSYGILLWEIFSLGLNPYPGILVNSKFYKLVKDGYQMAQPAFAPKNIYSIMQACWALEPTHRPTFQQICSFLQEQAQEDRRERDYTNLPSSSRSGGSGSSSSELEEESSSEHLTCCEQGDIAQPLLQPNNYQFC
Chain of PDGFRA (P16234 24-1089): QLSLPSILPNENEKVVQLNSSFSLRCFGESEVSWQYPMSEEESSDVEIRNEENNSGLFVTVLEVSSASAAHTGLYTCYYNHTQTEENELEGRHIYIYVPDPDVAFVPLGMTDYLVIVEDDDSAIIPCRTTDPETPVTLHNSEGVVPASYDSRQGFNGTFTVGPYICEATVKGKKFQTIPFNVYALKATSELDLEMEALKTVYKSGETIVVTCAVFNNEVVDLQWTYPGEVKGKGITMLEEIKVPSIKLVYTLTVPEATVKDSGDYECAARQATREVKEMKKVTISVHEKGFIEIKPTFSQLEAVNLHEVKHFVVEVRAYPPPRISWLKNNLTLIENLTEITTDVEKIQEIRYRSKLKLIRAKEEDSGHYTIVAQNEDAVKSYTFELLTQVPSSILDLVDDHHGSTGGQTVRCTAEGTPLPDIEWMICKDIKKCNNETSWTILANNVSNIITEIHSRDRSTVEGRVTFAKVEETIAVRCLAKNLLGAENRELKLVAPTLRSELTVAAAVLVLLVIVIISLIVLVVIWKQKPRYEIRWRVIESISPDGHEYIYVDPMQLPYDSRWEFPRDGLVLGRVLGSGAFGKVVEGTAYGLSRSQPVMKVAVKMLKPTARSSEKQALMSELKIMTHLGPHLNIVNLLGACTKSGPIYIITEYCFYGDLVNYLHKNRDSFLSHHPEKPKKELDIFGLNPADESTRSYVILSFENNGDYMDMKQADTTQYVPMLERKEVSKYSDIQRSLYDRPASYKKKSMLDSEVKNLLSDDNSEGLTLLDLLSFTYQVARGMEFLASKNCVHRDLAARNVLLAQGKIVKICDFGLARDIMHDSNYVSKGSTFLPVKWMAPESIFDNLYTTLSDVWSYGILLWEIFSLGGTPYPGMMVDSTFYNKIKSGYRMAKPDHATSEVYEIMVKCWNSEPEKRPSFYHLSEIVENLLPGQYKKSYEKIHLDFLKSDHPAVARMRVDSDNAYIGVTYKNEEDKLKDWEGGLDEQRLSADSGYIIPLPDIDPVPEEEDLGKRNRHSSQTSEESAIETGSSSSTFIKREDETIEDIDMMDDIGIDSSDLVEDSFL
Chain of KIT (P10721 26-976): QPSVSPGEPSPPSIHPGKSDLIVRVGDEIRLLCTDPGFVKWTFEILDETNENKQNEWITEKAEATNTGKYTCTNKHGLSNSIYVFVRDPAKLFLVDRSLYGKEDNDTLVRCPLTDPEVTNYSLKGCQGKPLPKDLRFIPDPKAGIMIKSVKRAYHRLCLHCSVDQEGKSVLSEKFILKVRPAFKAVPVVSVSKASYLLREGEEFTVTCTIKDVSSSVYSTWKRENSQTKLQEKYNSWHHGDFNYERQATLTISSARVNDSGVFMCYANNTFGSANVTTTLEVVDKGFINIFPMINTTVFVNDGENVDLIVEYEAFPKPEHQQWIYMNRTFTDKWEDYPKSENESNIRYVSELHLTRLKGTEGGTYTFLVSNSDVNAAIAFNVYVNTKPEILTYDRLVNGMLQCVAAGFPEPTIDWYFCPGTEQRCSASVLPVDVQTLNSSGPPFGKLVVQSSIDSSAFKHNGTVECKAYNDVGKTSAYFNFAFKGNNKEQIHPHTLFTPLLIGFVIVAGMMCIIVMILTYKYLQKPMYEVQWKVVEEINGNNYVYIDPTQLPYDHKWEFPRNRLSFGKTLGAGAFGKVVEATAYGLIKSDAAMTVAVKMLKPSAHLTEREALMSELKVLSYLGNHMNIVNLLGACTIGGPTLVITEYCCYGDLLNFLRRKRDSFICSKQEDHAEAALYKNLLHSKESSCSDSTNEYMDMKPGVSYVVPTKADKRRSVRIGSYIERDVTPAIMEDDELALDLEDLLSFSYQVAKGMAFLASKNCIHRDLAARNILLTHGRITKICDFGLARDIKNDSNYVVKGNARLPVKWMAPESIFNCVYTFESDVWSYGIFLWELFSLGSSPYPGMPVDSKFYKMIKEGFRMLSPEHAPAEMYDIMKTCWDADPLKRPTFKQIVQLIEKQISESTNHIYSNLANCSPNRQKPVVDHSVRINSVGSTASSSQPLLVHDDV

Row | Compound | IC50 (CSF-1R) [nM] | IC50 [1] [nM] | IC50 (PDGFRA) [nM] | IC50 (KIT) [nM]
1 | Cc1nc(-c2cnc3n(c2=O)CCCN3C)ccc1Cc1c[nH]c2ncc(Cl)cc12 [Example 13, 3-(5-((5-chloro-1H-pyrrolo[2,3-b]pyridin-3-yl)methyl)-6-methylpyridin-2-yl)-9-methyl-6,7,8,9-tetrahydro-4H-pyrimido[1,2-a]pyrimidin-4-one] | 65.6 | > 6000 |  | 
2 | Cc1nc(-c2cnc3n(c2=O)CCCN3C)ccc1Cc1c[nH]c2ncc(O)cc12 [Example 23] | 38.9 | > 6000 |  | 
3 | CCN1CCCn2c1ncc(-c1ccc(Cc3c[nH]c4ncc(-c5cnn(C)c5)cc34)c(C)n1)c2=O [Example 17] | 5.35 | 57.2 |  | 
4 | COc1cnc2[nH]cc(Cc3ccc(-c4cnc5n(c4=O)CCCN5C)nc3C)c2c1 [Example 22, 3-(5-((5-methoxy-1H-pyrrolo[2,3-b]pyridin-3-yl)methyl)-6-methylpyridin-2-yl)-9-methyl-6,7,8,9-tetrahydro-4H-pyrimido[1,2-a]pyrimidin-4-one] | 43.5 | > 2000 |  | 
5 | Cc1nc(-c2cnc(NC(C)C)[nH]c2=O)ccc1Cc1c[nH]c2ncc(F)cc12 [Example 5, 5-(5-((5-fluoro-1H-pyrrolo[2,3-b]pyridin-3-yl)methyl)-6-methylpyridin-2-yl)-2-(isopropylamino)pyrimidin-4(3H)-one] | 45.9 | 1820 | 9270 | 222
6 | Cc1nc(-c2cnc3n(c2=O)CCCN3C)ccc1Cc1c[nH]c2ncc(-c3cnn(C)c3)cc12 [Example 18, 9-methyl-3-(6-methyl-5-((5-(1-methyl-1H-pyrazol-4-yl)-1H-pyrrolo[2,3-b]pyridin-3-yl)methyl)pyridin-2-yl)-6,7,8,9-tetrahydro-4H-pyrimido[1,2-a]pyrimidin-4-one] | 4.34 | 447 |  | 
7 | Cc1nc(-c2cnc(NC(C)C)n(C)c2=O)ccc1Cc1c[nH]c2ncccc12 [Example 7, 5-(5-((1H-pyrrolo[2,3-b]pyridin-3-yl)methyl)-6-methylpyridin-2-yl)-2-(isopropylamino)-3-methylpyrimidin-4(3H)-one] | 36.7 | > 6000 | 998 | 50.8

Results, then the molecule that gave them:

Row | IC50 (CSF-1R) [nM] | IC50 [1] [nM] | IC50 (PDGFRA) [nM] | IC50 (KIT) [nM] | Compound
8 | 96.3 | > 18000 |  |  | Cc1cnc2[nH]cc(Cc3ccc(-c4cnc5n(c4=O)CCCN5C)nc3C)c2c1 [Example 21, 9-methyl-3-(6-methyl-5-((5-methyl-1H-pyrrolo[2,3-b]pyridin-3-yl)methyl)pyridin-2-yl)-6,7,8,9-tetrahydro-4H-pyrimido[1,2-a]pyrimidin-4-one]
9 | 55.2 | > 18000 |  |  | Cc1nc(-c2cnc3n(c2=O)CCCN3C)ccc1Cc1c[nH]c2ncccc12 [Example 14, 3-(5-((1H-pyrrolo[2,3-b]pyridin-3-yl)methyl)-6-methylpyridin-2-yl)-9-methyl-6,7,8,9-tetrahydro-4H-pyrimido[1,2-a]pyrimidin-4-one]
10 | 45.6 | 1030 |  |  | CCN1CCCn2c1ncc(-c1ccc(Cc3c[nH]c4ncc(Cl)cc34)c(C)n1)c2=O [Example 16, 3-(5-((5-chloro-1H-pyrrolo[2,3-b]pyridin-3-yl)methyl)-6-methylpyridin-2-yl)-9-ethyl-6,7,8,9-tetrahydro-4H-pyrimido[1,2-a]pyrimidin-4-one]
11 | 46.1 | > 18000 |  |  | Cc1nc(-c2cnc3n(c2=O)CCCN3C)ccc1Cc1c[nH]c2ncc(F)cc12 [Example 20, 3-(5-((5-fluoro-1H-pyrrolo[2,3-b]pyridin-3-yl)methyl)-6-methylpyridin-2-yl)-9-methyl-6,7,8,9-tetrahydro-4H-pyrimido[1,2-a]pyrimidin-4-one]
12 | 49.5 | > 2000 |  |  | Cc1nc(-c2cnc3n(c2=O)CCC(C)N3C)ccc1Cc1c[nH]c2ncc(Cl)cc12 (stereo not shown) [Example 15, 3-(5-((5-chloro-1H-pyrrolo[2,3-b]pyridin-3-yl)methyl)-6-methylpyridin-2-yl)-8,9-dimethyl-6,7,8,9-tetrahydro-4H-pyrimido[1,2-a]pyrimidin-4-one]
